Results on two compounds are retold here after PMC8209157, “Identification of a dual orange/far-red and blue light photoreceptor from an oceanic green picoplankton” (Nature Communications, 2021).

The target of assay [1] is T1, PpPHY (PHY region of PpDUC1) (Pycnococcus provasolii, UniProt A0A830HT85).
T1 construct: gene PPROV_000692100; source genome assembly GCA_015473125.1
T1 sequence (A0A830HT85 1-662): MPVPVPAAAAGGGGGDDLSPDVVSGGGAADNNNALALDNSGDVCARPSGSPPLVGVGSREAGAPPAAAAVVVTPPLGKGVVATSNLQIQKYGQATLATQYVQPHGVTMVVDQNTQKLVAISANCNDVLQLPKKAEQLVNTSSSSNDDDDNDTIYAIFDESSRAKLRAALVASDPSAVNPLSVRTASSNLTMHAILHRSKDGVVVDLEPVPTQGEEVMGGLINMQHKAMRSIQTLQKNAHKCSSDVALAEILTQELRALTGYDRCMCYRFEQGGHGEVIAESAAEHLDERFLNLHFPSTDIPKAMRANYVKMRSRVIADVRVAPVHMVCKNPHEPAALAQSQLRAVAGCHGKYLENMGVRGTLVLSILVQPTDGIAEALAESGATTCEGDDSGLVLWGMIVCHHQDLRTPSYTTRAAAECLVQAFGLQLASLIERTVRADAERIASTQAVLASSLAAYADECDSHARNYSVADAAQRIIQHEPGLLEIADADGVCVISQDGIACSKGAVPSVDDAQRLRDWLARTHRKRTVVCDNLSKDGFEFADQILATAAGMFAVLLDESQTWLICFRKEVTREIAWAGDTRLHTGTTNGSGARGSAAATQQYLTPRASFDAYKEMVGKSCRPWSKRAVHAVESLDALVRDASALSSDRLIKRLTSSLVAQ
Briefly: UV-Vis photoconversion spectra of purified holoprotein. As to conditions: chromophore co-produced in E. coli (pKT272); HEPES pH 7.5, room temperature. The class given is binding.

Assay [2] concerns the target T1, PpPHY (PHY region of PpDUC1). Briefly: UV-Vis photoconversion spectra, acid-urea denaturation and in-gel fluorescence of purified holoprotein. The class given is binding. The following applies: covalent; GAF Cys; chromophore co-produced in E. coli (pKT271); HEPES pH 7.5, room temperature.

SMILES strings stand for the structures.

Take `C=CC1=C(C)C(=CC2=NC(=Cc3[nH]c(C=C4NC(=O)C(C)C4=CC)c(C)c3CCC(=O)O)C(CCC(=O)O)=C2C)NC1=O` (centres unmarked) [PΦB, phytochromobilin]: the “UV-Vis photoconversion spectra of purified holoprotein” value in assay [1] is “PΦB but not BV could be efficiently incorporated into the apo-PpPHY”. On to `CC=C1C(=Cc2[nH]c(C=C3N=C(C=C4NC(=O)C(CC)=C4C)C(C)=C3CCC(=O)O)c(CCC(=O)O)c2C)NC(=O)C1C` (centres unmarked) [PCB, phycocyanobilin], for which, in assay [2], the “UV-Vis photoconversion spectra, acid-urea denaturation and in-gel fluorescence o” value was “The purified PpPHY covalently bound PCB”.
